Test results from patent US20250025429A1, “LIPID NANOPARTICLES FOR OLIGONUCLEOTIDE DELIVERY” (ZIPHIUS NV, priority 2021, published 2025).

Experiments:
[1] = LNP characterisation by Zeta Sizer (particle size, polydispersity, charge); type: physicochemical; conditions: LNP with saRNA; lipid:DOPE:Cholesterol:DMG-PEG 35:20:43.5:1.5; N/P approximately 40/1
Procedure: Cationic lipids, DOPE, Cholesterol and DMG-PEG lipid were solubilized in ethanol or DMSO at a molar ratio of 35:20:43.5:1.5 and a concentration of 100:25:20:25 μg/μL for C12-200 or 170:25:20:25 μg/μL for the comparator lipids. Lipid nanoparticles (LNP) were prepared by targeting an N/P ratio of approximately 40/1 with saRNA. Briefly, the saRNA was diluted to 0.5 mg/mL in 5 mM citrate buffer, pH 4.5. Microfluidic mixer (Ignite from Precision Nanosystems, California, USA) was used to mix the lipid solution with the saRNA aqueous solution at a ratio of about 1:3 (vol/vol) with total flow rates above 10 ml/min. The ethanol was then removed, and the external buffer replaced with 10 mM TRIS-HCL, pH 7.4, by dialysis. Finally, the lipid nanoparticles were filtered through a 0.2 μm pore sterile filter. Lipid nanoparticle particle size was 50-150 nm diameter and polydispersity index (PI) of 0.1-0.4 as determined by Zeta Sizer (Malvern Panalytical, UK). The charge of the formulation was also measured by Zeta Sizer and ranged between 20 to −20 mV.

[2] = saRNA encapsulation, Quant-IT RiboGreen assay; type: physicochemical; conditions: LNP with saRNA; RiboGreen with or without 2% Triton X-100
Procedure: The saRNA loading in LNP formulations was quantified using a Quant-IT RiboGreen assay (Thermo Fisher Scientific, Waltham, Massachusetts, USA) as previously described. 14 samples were diluted tenfold in 1× Tris HCL—EDTA (TE) buffer (10 mM Tris-HCL, 1 mM EDTA, pH 7.5) with or without 2% (v/v) Triton X-100 (Sigma-Aldrich, Saint Louis, Missouri, USA). Standard solutions were also prepared in 1×TE with or without 2% (v/v) Triton X-100 to account for any variation in fluorescence. The assay was performed according to the manufacturer's protocol. Samples were loaded on a black 96-well plate and analysed for fluorescence on a microplate reader (Tecan Infinite@200 PRO) at an excitation of 485 nm and emission at 528 nm. Encapsulation efficiency was calculated between 80-100%.

luciferase saRNA = assay: In vivo bioluminescent imaging after intramuscular injection of LNP-formulated luciferase saRNA; conditions: female SWISS mice, 1 μg luciferase saRNA intramuscularly
Procedure: (§1) Female SWISS mice (6 weeks old) were purchased from Janvier Laboratories (Paris, France) and kept in individually ventilated cages with access to food and water ad libitum. Mice were anesthetized with isoflurane (Zoetis, Louvain-La-Neuve, Belgium) (5% for induction and 2% for maintenance) and intramuscularly injected with a total of 1 μg in 100 μL Tris-HCL (50 μL per leg) LNP-formulated luciferase saRNA (for each group n=7). The expression of the luciferase induced bioluminescence was measured via non-invasive In vivo bioluminescent imaging (In vivo Imaging System (IVIS) Lumina III, Perkin Elmer, Waltham, Massachusetts, USA), 10 minutes after subcutaneous injection of 200 μL of D-luciferin (GoldBio, Saint Louis, Missouri, USA, #LUCK-1G) were measured in day 0 (before injection), day 1, day 3, day 5, day 7, day 10, day 15 and day 20. Table 4 and 5 report on the in vivo study using exemplary compounds 10-21, 10-44 and 10-45 and comparator lipids C12-200 and C1. […] Table 5 supports good tolerability of the compounds according to formula I.

[3] = Body weight of mice in the in vivo study (tolerability); conditions: female SWISS mice, 1 μg LNP-formulated saRNA intramuscularly
Procedure: as §1

Row | SMILES | Polydispersity Index (PI) [1] | Z-average (nm) [1] [nm] | Zetapotential (mV) [1] [mV] | Encapsulation (%) [2] [%] | Bioluminescence expression of LNPs (luciferase saRNA; Day 0 (before injection)) | Bioluminescence expression of LNPs (luciferase saRNA; Day 1) | Bioluminescence expression of LNPs (luciferase saRNA; Day 3) | Bioluminescence expression of LNPs (luciferase saRNA; Day 5) | Bioluminescence expression of LNPs (luciferase saRNA; Day 7) | Bioluminescence expression of LNPs (luciferase saRNA; Day 10) | Bioluminescence expression of LNPs (luciferase saRNA; Day 15) | Bioluminescence expression of LNPs (luciferase saRNA; Day 20) | Weight ([3]; Day 0 (before injection)) [g] | Weight ([3]; Day 1) [g] | Weight ([3]; Day 3) [g] | Weight ([3]; Day 5) [g] | Weight ([3]; Day 7) [g] | Weight ([3]; Day 10) [g] | Weight ([3]; Day 15) [g] | Weight ([3]; Day 20) [g]
1 | CCCCCCCCCCCCCCOC(=O)CCN(CCC(=O)OCCCCCCCCCCCCCC)CCN1CCN(CCN(CCC(=O)OCCCCCCCCCCCCCC)CCC(=O)OCCCCCCCCCCCCCC)CC1 [Comparator 1 (C1), reference compound] | 0.16 | 70.96 | 9.07 | 99.03 | 3.32E+04 | 2.76E+07 | 1.28E+08 | 7.19E+07 | 8.88E+07 | 5.07E+06 | 8.46E+04 | 4.32E+04 | 26.56 | 25.99 | 27.21 | 27.59 | 27.09 | 27.17 | 29.43 | 30.11
2 | CCCCCCC(CCCC)C(=O)OCCCCN(CCCCOC(=O)C(CCCC)CCCCCC)CCN1CCN(CCO)CC1 (stereo not shown) [Compound 10-21, ((2-(4-(2-hydroxyethyl)piperazin-1-yl)ethyl)azanediyl)bis(butane-4,1-diyl) bis(2-butyloctanoate)] | 0.16 | 72.27 | 7.05 | 99.41 | 3.89E+04 | 3.23E+06 | 5.03E+07 | 8.74E+07 | 5.77E+07 | 7.72E+06 | 2.44E+05 | 1.62E+05 | 27.96 | 28.19 | 28.26 | 27.90 | 28.01 | 27.57 | 28.63 | 30.83
3 | CCCCCCC(CCCC)C(=O)OCCCCN(CCCCOC(=O)C(CCCC)CCCCCC)CCN1CCN(CCN)CC1 (stereo not shown) [Compound 10-44, ((2-(4-(2-aminoethyl)piperazin-1-yl)ethyl)azanediyl)bis(butane-4,1-diyl) bis(2-butyloctanoate)] | 0.15 | 67.46 | 1.25 | 100.06 | 2.87E+04 | 1.61E+07 | 3.62E+07 | 4.98E+07 | 4.24E+07 | 1.09E+06 | 5.87E+04 | 6.12E+04 | 26.84 | 26.46 | 27.00 | 28.13 | 27.94 | 28.11 | 29.31 | 30.04
4 | CCCCCCC(CCCC)C(=O)OCCCCN(CCCCOC(=O)C(CCCC)CCCCCC)CCN1CCN(CCNCCN)CC1 (stereo not shown) [Compound 10-45, ((2-(4-(2-((2-aminoethyl)amino)ethyl)piperazin-1-yl)ethyl)azanediyl)bis(butane-4,1-diyl) bis(2-butyloctanoate)] | 0.1 | 81.42 | 2.78 | 100.49 | 6.00E+04 | 1.09E+07 | 1.90E+07 | 1.72E+07 | 1.68E+07 | 7.02E+05 | 7.94E+04 | 8.63E+04 | 26.93 | 25.79 | 26.43 | 27.10 | 27.27 | 27.69 | 28.19 | 30.21
5 | CCCCCCCCCCC(O)CN(CCN1CCN(CCN(CC(O)CCCCCCCCCC)CC(O)CCCCCCCCCC)CC1)CCN(CC(O)CCCCCCCCCC)CC(O)CCCCCCCCCC (stereo not shown) [Compound C12-200, 1,1′-((2-(4-(2-((2-(bis(2-hydroxydodecyl)amino)ethyl) (2-hydroxydodecyl)amino)ethyl)piperazin-1-yl)ethyl)azanediyl) bis(dodecan-2-ol), reference compound] | 0.27 | 98.11 | −5.50 | 95.32 | 2.39E+04 | 3.36E+08 | 6.19E+08 | 4.79E+08 | 2.47E+08 | 2.20E+07 | 4.80E+05 | 9.12E+04 | 28.61 | 27.17 | 28.62 | 28.98 | 28.97 | 29.23 | 30.16 | 31.23
